Structures are written as SMILES. Like-named read-outs stand apart in the source and are kept apart here.

We go through 17 molecules from patent US10550100B2, “5-[3-[piperzin-1-yl]-3-oxo-propyl]-imidazolidine-2,4-dione derivatives as ADAMTS 4 and 5 inhibitors for treating E.G. osteoarthritis” (GALAPAGOS NV, priority 2016, dated 2020).

Holding throughout (type): biochemical
One assay concerns the target human TACE (Homo sapiens (Human), UniProt P78536). Description: hTACE 5FAM-[…]-5TAMRA cleavage assay. To be noted: 75 min at room temperature, read-out: hTACE potency IC50. The procedure: Finally, the fluorescence is read on the Envision (Perkin Elmer) after an incubation of 75 min at room temperature (Excitation 485 nm, Emission 530).
The next assay addresses human ADAMTS6 (Homo sapiens (Human), UniProt Q9UKP5). Briefly: hADAMTS-6 520 MMP FRET substrate XII cleavage assay. To be noted: 37° C. for 2 h, read-out: hADAMTS-6 potency IC50. The text has this:
The IC50 value for test compounds can be determined in a fluorescent based protease assay.
The basis for the assay is the cleavage of the substrate 520 MMP FRET substrate XII by human ADAMTS6.
The substrate contains sequence Arg-Pro-Lys-Pro-Tyr-Ala-Nva-Trp-Met-Lys (SEQ ID NO: 7) with attached a fluorescent probe and a quencher. Without ADAMTS6, the emission of the probe is quenched. If the substrate is cleaved by ADAMTS6, the emission of the probe is not quenched anymore. Inhibition of ADAMTS6 activity, will result in a decrease of the signal.
To perform the assay, 4 μL of a dilution series of compound in water, starting from 20 μM highest concentration, 1/5 dilution, is added to the wells. 2 ng ADAMTS6 enzyme is diluted in 25 mM Tris pH8.0, 0.05% CHAPS, 2.5 mM CaCl2 in a total volume of 26 μL (final concentration 0.73 nM). The reaction is started by addition of 10 μL of 1 μM 520 MMP FRET Substrate XII (final concentration, diluted in same buffer as described above) and the mixture is incubated at 37° C. for 2 h. […] After this incubation, cleavage of the substrate is measured using the Envision (Perkin Elmer, exc485/em530).

The target in assay [1] is T1, human MMP13 (Homo sapiens (Human), UniProt P45452). Briefly: hMMP13 390 MMP FRET Substrate I cleavage assay, Protocol 2. To be noted: Protocol 2, 390 MMP FRET Substrate I; read-out: hMMP-13 potency IC50. How it is done:
(§1) The basis for the assay is the cleavage of the substrate 390 MMP FRET Substrate I (Anaspec Cat# AS-27076) by human MMP13 (Chemicon, Cat#CC068).
(§2) Human MMP13 is preactivated by incubated the enzyme in the same buffer complemented with 1 mM freshly prepared p-Aminophenylmercuric acetate (AMPA) for 1 h at 37° C.
(§3) The reaction is initiated by adding to the assay plate 390 MMP FRET Substrate I (10 μL, 2.5 μM) in the same buffer.
(§4) Finally, the fluorescence is read on the Envision (Perkin Elmer) after an incubation of 45 min at room temperature (Excitation 485 nm, Emission 530).

The target in another assay is human MMP14 (Homo sapiens (Human), UniProt P50281). Description: hMMP14 390 MMP FRET Substrate I cleavage assay. To be noted: 60 min at room temperature, read-out: hMMP-14 potency IC50. How it is done:
The basis for the assay is the cleavage of the substrate 390 MMP FRET Substrate I (Anaspec Cat# AS-27076) by human MMP14 (Biomol, Cat#SE-259).
as §3
Finally, the fluorescence is read on the Envision (Perkin Elmer) after an incubation of 60 min at room temperature (Excitation 485 nm, Emission 530).

Another assay addresses human ADAMTS-5 (Homo sapiens (Human), UniProt Q9UNA0). Briefly: hADAMTS-5 TBIS-1 cleavage assay, Protocol 3. To be noted: Protocol 3, TBIS-1 substrate, 90 min at 37° C.; read-out: hADAMTS-5 potency IC50. The procedure: The reaction is initiated by adding to the assay plate TBIS-1 (10 μL, 4.5 μM, Anaspec) in the same buffer.
Finally, the fluorescence is read on the Envision (Perkin Elmer) after an incubation of 90 min at 37° C. (Excitation 485 nm, emission 530).

The target in assay [2] is T1, human MMP13. Description: hMMP13 390 MMP FRET Substrate I cleavage assay, Protocol 1. To be noted: Protocol 1, 390 MMP FRET Substrate I; read-out: hMMP-13 potency IC50. How it is done: as §1, §2, §3, §4

human ADAMTS6, sequence (Q9UKP5 other isoform, or with tags, fused parts or gaps): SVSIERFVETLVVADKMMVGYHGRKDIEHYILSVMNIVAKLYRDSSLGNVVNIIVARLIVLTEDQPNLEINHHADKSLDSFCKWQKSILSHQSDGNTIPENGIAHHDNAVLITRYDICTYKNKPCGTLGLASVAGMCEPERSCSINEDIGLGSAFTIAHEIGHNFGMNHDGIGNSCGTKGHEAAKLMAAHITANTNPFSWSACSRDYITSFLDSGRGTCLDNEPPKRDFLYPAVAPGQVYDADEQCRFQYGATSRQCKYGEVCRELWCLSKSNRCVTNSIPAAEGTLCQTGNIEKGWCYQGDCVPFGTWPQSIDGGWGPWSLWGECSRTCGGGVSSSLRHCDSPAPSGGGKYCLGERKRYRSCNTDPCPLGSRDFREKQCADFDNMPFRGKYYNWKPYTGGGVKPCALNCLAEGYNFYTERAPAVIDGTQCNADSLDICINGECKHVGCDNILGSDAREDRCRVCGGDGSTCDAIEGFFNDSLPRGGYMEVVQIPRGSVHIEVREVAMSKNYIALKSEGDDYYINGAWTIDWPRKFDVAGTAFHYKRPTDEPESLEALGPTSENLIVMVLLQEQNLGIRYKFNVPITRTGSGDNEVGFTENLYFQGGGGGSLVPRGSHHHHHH
human ADAMTS-5, sequence (Q9UNA0 262-930): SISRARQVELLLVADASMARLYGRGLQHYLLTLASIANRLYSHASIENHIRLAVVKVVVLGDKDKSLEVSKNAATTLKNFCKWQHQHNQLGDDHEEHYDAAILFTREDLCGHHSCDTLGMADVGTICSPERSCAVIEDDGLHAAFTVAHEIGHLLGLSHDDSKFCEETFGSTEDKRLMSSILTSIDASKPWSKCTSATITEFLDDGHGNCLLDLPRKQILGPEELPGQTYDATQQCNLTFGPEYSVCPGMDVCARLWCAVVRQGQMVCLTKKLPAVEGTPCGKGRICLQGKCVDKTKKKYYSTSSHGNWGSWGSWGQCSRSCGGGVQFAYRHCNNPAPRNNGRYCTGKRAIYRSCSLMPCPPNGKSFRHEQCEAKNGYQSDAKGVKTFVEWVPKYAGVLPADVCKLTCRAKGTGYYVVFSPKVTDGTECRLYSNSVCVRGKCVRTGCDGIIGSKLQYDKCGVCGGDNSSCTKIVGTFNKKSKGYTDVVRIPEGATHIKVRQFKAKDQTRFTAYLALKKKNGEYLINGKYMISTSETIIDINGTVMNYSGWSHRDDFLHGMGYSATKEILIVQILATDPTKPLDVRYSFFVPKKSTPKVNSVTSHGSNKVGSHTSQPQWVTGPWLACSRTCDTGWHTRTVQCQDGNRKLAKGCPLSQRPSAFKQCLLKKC
human TACE, sequence (P78536 215-671): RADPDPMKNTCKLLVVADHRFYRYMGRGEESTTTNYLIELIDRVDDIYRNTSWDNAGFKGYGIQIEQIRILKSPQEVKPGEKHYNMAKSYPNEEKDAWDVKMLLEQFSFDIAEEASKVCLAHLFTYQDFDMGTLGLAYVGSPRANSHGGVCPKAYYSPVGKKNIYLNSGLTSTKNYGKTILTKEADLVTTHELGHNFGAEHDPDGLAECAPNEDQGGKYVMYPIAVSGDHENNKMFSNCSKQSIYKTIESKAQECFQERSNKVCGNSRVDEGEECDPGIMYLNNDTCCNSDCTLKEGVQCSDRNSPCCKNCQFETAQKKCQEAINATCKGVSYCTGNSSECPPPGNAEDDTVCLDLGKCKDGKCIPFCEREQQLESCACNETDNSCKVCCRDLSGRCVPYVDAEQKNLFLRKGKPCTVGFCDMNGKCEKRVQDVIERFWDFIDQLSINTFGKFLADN

Usually IC50 stands for the midpoint of a concentration-inhibition curve. Turning to `COc1cc(F)c(Cl)cc1C1CCN(C(=O)[C@@H](C)C[C@@]2(C)NC(=O)NC2=O)CC1` (stereo in doubt) [Cpd 111, 5-[3-[4-(5-chloro-4-fluoro-2-methoxy-phenyl)-1-piperidyl]-2-methyl-3-oxo-propyl]-5-methyl-imidazolidine-2,4-dione], the IC50 on human TACE (5FAM-[…]-5TAMRA) is 50 to 100 nM; at human ADAMTS6 it was 0.001 to 25 nM; at human MMP13 [1] it was > 100 nM; on human MMP14 it was > 100 nM.

With `COc1cc(C2CCN(C(=O)CCC3(C)NC(=O)NC3=O)CC2)cc(OC)c1F` (centres unmarked) [Cpd 72], the IC50 at human TACE (5FAM-LAQAVRSSSRK-5TAMRA) is > 100 nM; at human ADAMTS6, 0.001 to 25 nM; at human ADAMTS-5 it was > 100 nM; on human MMP13 [1] it was > 100 nM; at human MMP14, > 100 nM.

For `Cc1cc(Cl)c(F)cc1C1CCN(C(=O)CCC2(C)NC(=O)NC2=O)CC1` (centres unmarked) [Cpd 64, 5-(3-(4-(4-chloro-5-fluoro-2-methylphenyl)piperidin-1-yl)-3-oxopropyl)-5-methyl-imidazolidine-2,4-dione], the 50% inhibitory concentration (IC50) at human TACE (5FAM-LAQAVRSSSRK-5TAMRA) is > 100 nM; on human ADAMTS6, 25 to 50 nM; on human ADAMTS-5, > 100 nM; at human MMP13 [1], > 100 nM; on human MMP14, > 100 nM.

As for `Cc1cc(C2CCN(C(=O)CC[C@@]3(C)NC(=O)NC3=O)CC2)cc(C)c1Cl` [Cpd 93, (5R)-5-[3-[4-(4-chloro-3,5-dimethyl-phenyl)-1-piperidyl]-3-oxo-propyl]-5-methyl-imidazolidine-2,4-dione], the IC50 on human TACE (5FAM-[…]-5TAMRA) was 50 to 100 nM; at human ADAMTS6, 0.001 to 25 nM; at human ADAMTS-5, > 100 nM; on human MMP13 [1], > 100 nM; on human MMP14, > 100 nM.

Consider `COc1c(Cl)cccc1C1CCN(C(=O)CC[C@H]2NC(=O)NC2=O)CC1` [Cpd 74, (R)-5-(3-(4-(3-chloro-2-methoxyphenyl)piperidin-1-yl)-3-oxopropyl) imidazolidine-2,4-dione], for which the 50% inhibitory concentration (IC50) at human TACE (5FAM-LAQAVRSSSRK-5TAMRA), at human ADAMTS6, on human ADAMTS-5, on human MMP13 [1] and at human MMP14 was > 100 nM each time.

Turning to `COc1cc(C2CCN(C(=O)[C@@H](C)C[C@@]3(C)NC(=O)NC3=O)CC2)cc(F)c1Cl` [Cpd 102], the IC50 on human TACE (5FAM-[…]-5TAMRA) was 50 to 100 nM; on human ADAMTS6, 0.001 to 25 nM; at human ADAMTS-5, 25 to 50 nM; on human MMP13 [1], > 100 nM; on human MMP14, > 100 nM.

For the molecule `COc1cc(C2CCN(C(=O)CC[C@@]3(C)NC(=O)NC3=O)CC2)ccc1Cl` [Cpd 85, (5R)-5-[3-[4-(4-chloro-3-methoxy-phenyl)-1-piperidyl]-3-oxo-propyl]-5-methyl-imidazolidine-2,4-dione], the IC50 at human TACE (5FAM-[…]-5TAMRA) is 50 to 100 nM; at human ADAMTS6, 0.001 to 25 nM; on human MMP13 [1] it was > 100 nM; at human MMP14, > 100 nM.

With `CCc1cc(C2CCN(C(=O)CC[C@@]3(C)NC(=O)NC3=O)CC2)cc(OC)c1Cl` [Cpd 105, (5R)-5-[3-[4-(4-chloro-3-ethyl-5-methoxy-phenyl)-1-piperidyl]-3-oxo-propyl]-5-methyl-imidazolidine-2,4-dione], the IC50 on human TACE (5FAM-[…]-5TAMRA) was 25 to 50 nM; at human ADAMTS6, 0.001 to 25 nM; on human ADAMTS-5, > 100 nM; on human MMP13 [1], > 100 nM; on human MMP14, > 100 nM.

For `COC[C@]1(C[C@H](C)C(=O)N2CCC(c3cc(F)c(Cl)c(OC)c3)CC2)NC(=O)NC1=O` (stereo in doubt) [Cpd 103, 5-[3-[4-(4-chloro-3-fluoro-5-methoxy-phenyl)-1-piperidyl]-2-methyl-3-oxo-propyl]-5-(methoxymethyl) imidazolidine-2,4-dione], the IC50 at human TACE (5FAM-[…]-5TAMRA) was 50 to 100 nM; on human ADAMTS6, 0.001 to 25 nM; on human ADAMTS-5 it was 0.001 to 25 nM; on human MMP13 [1], > 100 nM; at human MMP14, > 100 nM.

With `COc1cc(Cl)cc(C2CCN(C(=O)CC[C@@]3(C)NC(=O)NC3=O)CC2)c1` [Cpd 66, (R)-5-(3-(4-(3-chloro-5-methoxyphenyl)piperidin-1-yl)-3-oxopropyl)-5-methyl-imidazolidine-2,4-dione], the IC50 is 25 to 50 nM at human TACE (5FAM-[…]-5TAMRA), 0.001 to 25 nM on human ADAMTS6, > 100 nM on human ADAMTS-5 and > 100 nM at human MMP13 [1].

In the case of `COc1cc(Cl)cc(C2CCN(C(=O)CC[C@H]3NC(=O)NC3=O)CC2)c1` [Cpd 67, (R)-5-(3-(4-(3-chloro-5-methoxyphenyl)piperidin-1-yl)-3-oxopropyl) imidazolidine-2,4-dione], the IC50 at human ADAMTS-5 and at human MMP13 [1] was > 100 nM each time.

As for `COC[C@]1(C[C@H](C)C(=O)N2CCC(c3cc(F)c(Cl)cc3OC)CC2)NC(=O)NC1=O` (stereo in doubt) [Cpd 109, 5-[3-[4-(4-chloro-5-fluoro-2-methoxy-phenyl)-1-piperidyl]-2-methyl-3-oxo-propyl]-5-(methoxymethyl) imidazolidine-2,4-dione], the IC50 on human TACE (5FAM-[…]-5TAMRA) is 50 to 100 nM; on human ADAMTS6, 0.001 to 25 nM; on human MMP13 [1] it was > 100 nM; on human MMP14, > 100 nM.

For `COc1cc(Cl)ccc1C1CCN(C(=O)[C@@H](C)C[C@@]2(C)NC(=O)NC2=O)CC1` (stereo in doubt) [Cpd 97, 5-[3-[4-(4-chloro-2-methoxy-phenyl)-1-piperidyl]-2-methyl-3-oxo-propyl]-5-methyl-imidazolidine-2,4-dione], the half-maximal inhibitory concentration (IC50) is > 100 nM on human TACE (5FAM-LAQAVRSSSRK-5TAMRA), 0.001 to 25 nM at human ADAMTS6, > 100 nM at human MMP13 [1] and > 100 nM on human MMP14.

In the case of `COC[C@]1(C[C@H](C)C(=O)N2CCC(c3cc(Cl)c(F)cc3OC)CC2)NC(=O)NC1=O` (stereo in doubt) [Cpd 107, 5-[3-[4-(5-chloro-4-fluoro-2-methoxy-phenyl)-1-piperidyl]-2-methyl-3-oxo-propyl]-5-(methoxymethyl) imidazolidine-2,4-dione], the 50% inhibitory concentration (IC50) was 50 to 100 nM on human TACE (5FAM-[…]-5TAMRA), 0.001 to 25 nM on human ADAMTS6, > 100 nM at human MMP13 [1] and > 100 nM on human MMP14.

Consider `CC1(CCC(=O)N2CCC(c3ccc(Cl)c(F)c3)CC2)NC(=O)NC1=O` (centres unmarked) [Cpd 54, 5-(3-(4-(4-chloro-3-fluorophenyl)piperidin-1-yl)-3-oxopropyl)-5-methyl-imidazolidine-2,4-dione], for which the IC50 is > 100 nM on human TACE (5FAM-LAQAVRSSSRK-5TAMRA); > 100 nM on human MMP13 [2]; 50 to 100 nM on human ADAMTS6; > 100 nM at human ADAMTS-5; > 100 nM on human MMP14.

Consider `COC[C@]1(C[C@H](C)C(=O)N2CCC(c3ccc(Cl)cc3OC)CC2)NC(=O)NC1=O` (stereo in doubt) [Cpd 108, 5-[3-[4-(4-chloro-2-methoxy-phenyl)-1-piperidyl]-2-methyl-3-oxo-propyl]-5-(methoxymethyl) imidazolidine-2,4-dione], for which the IC50 at human TACE (5FAM-[…]-5TAMRA) was 50 to 100 nM; at human ADAMTS6, 0.001 to 25 nM; at human MMP13 [1], > 100 nM; at human MMP14, > 100 nM.

Take `COc1cc(C2CCN(C(=O)CC[C@@]3(C)NC(=O)NC3=O)CC2)cc(F)c1Cl` [Cpd 84, (5R)-5-[3-[4-(4-chloro-3-fluoro-5-methoxy-phenyl)-1-piperidyl]-3-oxo-propyl]-5-methyl-imidazolidine-2,4-dione]: the IC50 at human TACE (5FAM-[…]-5TAMRA) is 50 to 100 nM; at human ADAMTS6, 0.001 to 25 nM; on human MMP13 [1], > 100 nM; on human MMP14, > 100 nM.
